Measured values: ChEMBL document CHEMBL3244144, “Piperidylalkylindoles. 1. Hypotensive activity of 3-[2-(phenoxypiperidyl)ethyl]indoles” (J Med Chem, 1978)
Activity calls are given as the source filed them. No cut-off for these calls is given here.

Tests used:
Rattus norvegicus [1] = test: Antihypertensive activity in spontaneous hypertensive rat assessed as change in systolic blood pressure at 100 mg/kg, po dosed at 0 hrs on day 1, 2 and 3 measured on day 1 by indirect tail-cuff method; assay type: functional, Artery
Rattus norvegicus [2] = test: Antihypertensive activity in spontaneous hypertensive rat assessed as change in systolic blood pressure at 100 mg/kg, po dosed at 0 hrs on day 1, 2 and 3 measured on day 3 by indirect tail-cuff method; assay type: functional, Artery
Rattus norvegicus [3] = test: Toxicity in spontaneous hypertensive rat model at 100 mg/kg, po dosed at 0 hrs on day 1, 2 and 3 measured on day 3; assay type: organism-based; set-up: dose 100 mg/kg, route oral; details: in vivo
Rattus norvegicus [4] = test: Antihypertensive activity in spontaneous hypertensive rat assessed as change in systolic blood pressure at 50 mg/kg, po dosed at 0 hrs on day 1, 2 and 3 measured on day 3 by indirect tail-cuff method; assay type: functional, Artery

SMILES | Activity (Rattus norvegicus [1]) | Activity (Rattus norvegicus [2]) | Activity (Rattus norvegicus [1]; Artery) | Activity (Rattus norvegicus [2]; Artery) | also measured
Cc1ccccc1OC1CCN(CCc2c[nH]c3ccccc23)CC1 | -7 mmHg | -8 mmHg |  |  | 
O=C(C(=O)N1CCC(Oc2ccc(F)cc2)CC1)c1c[nH]c2ccccc12 |  |  | inactive | inactive | 
FC(F)(F)c1ccc(OC2CCN(CCc3c[nH]c4ccccc34)CC2)cc1 | -24 mmHg |  |  |  | Activity (Rattus norvegicus [3]): Toxic
Cc1ccc(OC2CCN(CCc3c[nH]c4ccccc34)CC2)cc1 | -48 mmHg | -57 mmHg |  |  | 
Cc1[nH]c2ccccc2c1CCN1CCC(Oc2ccc(F)cc2)CC1 | -18 mmHg |  |  |  | Activity (Rattus norvegicus [3]): Toxic
Brc1ccc(OC2CCN(CCc3c[nH]c4ccccc34)CC2)cc1 | -49 mmHg | -59 mmHg |  |  | 
O=C(C(=O)N1CCC(Oc2ccc(C(F)(F)F)cc2)CC1)c1c[nH]c2ccccc12 |  |  | inactive | inactive | 
COc1ccc2[nH]cc(CCN3CCC(Oc4ccc(F)cc4)CC3)c2c1 | -2 mmHg | -6 mmHg |  |  | 
Cc1[nH]c2ccccc2c1C(=O)C(=O)N1CCC(Oc2ccc(F)cc2)CC1 |  |  | inactive | inactive | 
O=C(C(=O)N1CCC(Oc2ccccc2)CC1)c1c[nH]c2ccccc12 |  |  | inactive | inactive | 
O=C(C(=O)N1CCC(Oc2ccc(Cl)cc2)CC1)c1c[nH]c2ccccc12 |  |  | inactive | inactive | 
Fc1ccc(OC2CCN(CCc3c[nH]c4ccc(OCc5ccccc5)cc34)CC2)cc1 | -2 mmHg | -16 mmHg |  |  | 
COc1cc2[nH]c(C)c(CCN3CCC(Oc4ccc(C(F)(F)F)cc4)CC3)c2cc1OC | -24 mmHg | -58 mmHg |  |  | 
Cc1cccc(OC2CCN(C(=O)C(=O)c3c[nH]c4ccccc34)CC2)c1 |  |  | inactive | inactive | 
Fc1ccc(OC2CCN(CCc3c[nH]c4ccccc34)CC2)cc1 | -56 mmHg | -55 mmHg |  |  | 
Cc1ccc(OC2CCN(C(=O)C(=O)c3c[nH]c4ccccc34)CC2)cc1 |  |  | inactive | inactive | 
O=C(C(=O)N1CCC(Oc2cccc(Cl)c2)CC1)c1c[nH]c2ccccc12 |  |  | inactive | inactive | 
Cc1cccc(OC2CCN(CCc3c[nH]c4ccccc34)CC2)c1 | -3 mmHg | -14 mmHg |  |  | 
Clc1ccc(OC2CCN(CCc3c[nH]c4ccccc34)CC2)cc1 | -47 mmHg | -54 mmHg |  |  | 
Cc1ccc(OC2CCCN(C(=O)C(=O)c3c[nH]c4ccccc34)C2)cc1 (stereo not given) |  |  | inactive | inactive | 
Clc1cccc(OC2CCN(CCc3c[nH]c4ccccc34)CC2)c1 | -11.2 mmHg | -8 mmHg |  |  | 
c1ccc(OC2CCN(CCc3c[nH]c4ccccc34)CC2)cc1 | -10 mmHg | -31 mmHg |  |  | 
COc1ccc2[nH]cc(C(=O)C(=O)N3CCC(Oc4ccc(F)cc4)CC3)c2c1 |  |  | inactive | inactive | 
COc1cc2[nH]c(C)c(C(=O)C(=O)N3CCC(Oc4ccc(C(F)(F)F)cc4)CC3)c2cc1OC |  |  | inactive | inactive | 
O=C(C(=O)N1CCC(Oc2ccc(F)cc2)CC1)c1c[nH]c2ccc(OCc3ccccc3)cc12 |  |  | inactive | inactive | 
Cl.O=C(NC1CCN(CCc2c[nH]c3ccccc23)CC1)c1ccccc1 [INDORAMIN HYDROCHLORIDE] |  |  |  |  | Activity (Rattus norvegicus [4]): -79 mmHg
Cc1ccccc1OC1CCN(C(=O)C(=O)c2c[nH]c3ccccc23)CC1 |  |  | inactive | inactive | 
Cc1ccc(OC2CCCN(CCc3c[nH]c4ccccc34)C2)cc1 (stereo not given) | -63 mmHg | -12 mmHg |  |  | 
